Data taken from publication PMC4585259 (Frontiers in Pharmacology, 2015).
Where two headings read alike, the source gives them in different places.

Biological target: T1, rNav1.2 sodium channels (Rattus norvegicus, UniProt P04775)
T1 construct: host or cells: HEK-293
Test: QPatch automated patch clamp, inhibition of sodium currents evoked by 5 Hz trains at three extracellular pH values
Type: cell-based
Conditions: for class of pH-dependence pattern (cluster analysis): Ward's method on 18 variables of affinity, reversibility, onset; for τoffset / τonset: concentration (lidocaine 300 μM, memantine 30 μM)
Procedure: HEK-293 cells stably expressing rNav1.2 sodium channels were obtained from NeuroSearch (Ballerup, Denmark). The cells were grown in Dulbecco's modified Eagle medium supplemented with 10% FBS. Prior to use, the cells were trypsinized and subsequently kept in suspension in the QPatch cell storage facility in CHO-S- SFM-II medium.
Composition of the extracellular solution was: (in mM): 140 NaCl, 3 KCl, 1 CaCl2 1 MgCl2, 0.1 CdCl2, 20 TEA-Cl, 5 HEPES, adjusted to pH 7.3, Osmolality: 320 mOsm. […] Drugs were synthesized in Gedeon Richter Plc. […] The full list of drugs, with their three-letter codes, concentration, as well as their main therapeutic indication and main mechanism of action are shown in Table 1. […] The choice of concentrations used in this study may seem unusually high.
Data were sampled at a frequency of 25 kHz and filtered at 5 kHz. Junction potential was calculated to be −11 mV and was corrected for. […] Cells having membrane resistance < 500 MOhm, series resistance > 9 MOhm, or capacitance > 22 pF were excluded from analysis. The experimental protocol was also identical to the one used in our previous study: sodium channels were activated by 5 Hz trains of 5 depolarizations (−90 to −10 mV) repeated in every 20 s. In this study, however, the same control–drug-application–washout sequence was repeated four times: at neutral, acidic, alkalic, and again neutral pH. The peak amplitudes of sodium currents throughout the whole experiment are shown plotted against time in Figure 1 and Supplementary Figure 1.
Initial analysis, including subtraction of leak and capacitive artifacts, as well as peak detection were done in the QPatch software. […] All experiments were normalized to the amplitude of the current evoked by the first depolarization of the last train under control conditions. […] For all four drug applications in an experiment, apparent affinity, onset and offset time constants as well as reversibility values were calculated. […] (This method is equivalent to applying the Lineweaver-Burk plot method using a single concentration.) Reversibility values were calculated from control (c), inhibited (i), and wash-out (w) amplitudes as follows: Reversibility = (w-i)/(c-i). Reversibility values should not be regarded as experimental platform-independent properties of compounds. […] However, reversibility values are a valuable source of information regarding physicochemical differences between individual drugs, or between effects of the same drug under different extracellular pH conditions. Onset and offset time constants were determined by single exponential fitting to individual experiments. For neutral pH numerical data were given as the average of the data from the first and the last drug applications. Thin black lines on Figure 1 and Supplemental Figure 1 show the average of five fitted exponentials, (not the exponential fitted to the averaged normalized amplitudes). The numerical values of apparent affinity, onset and offset time constants and reversibility are shown in Table 2, and their relative position is illustrated in Figure 2. Affinity and time constant values were logarithmically transformed for statistics, therefore we show their geometric mean. For recovery data no transformation was done, and we show arithmetic mean values. Significance values were calculated using paired, two-tailed Student's t-test based on five pairs of apparent affinity (log transform), time constant (log transform), or reversibility values obtained from five individual experiments. Because of the large number of comparisons in this study, we accepted p < 0.01 as significant. Cluster analysis was done using Ward's minimum variance method, with Euclidean distance measure. Data were normalized by subtracting the mean (after logarithmic transformation in the case of apparent affinity and time constants), and dividing by the standard deviation.

[1] = pH 6.0, single concentration (lidocaine 300 μM, memantine 30 μM), geometric mean of 5, read-out: apparent affinity
[2] = pH 7.3, single concentration (lidocaine 300 μM, memantine 30 μM), geometric mean of 5, read-out: apparent affinity
[3] = pH 8.6, single concentration (lidocaine 300 μM, memantine 30 μM), geometric mean of 5, read-out: apparent affinity
[4] = pH=6.0, cc 300 mM, read-out: Apparent Affinity
[5] = pH=7.3, cc 300 mM, read-out: Apparent Affinity
[6] = pH=8.6, cc 300 mM, read-out: Apparent Affinity

T1 sequence (P04775 whole entry): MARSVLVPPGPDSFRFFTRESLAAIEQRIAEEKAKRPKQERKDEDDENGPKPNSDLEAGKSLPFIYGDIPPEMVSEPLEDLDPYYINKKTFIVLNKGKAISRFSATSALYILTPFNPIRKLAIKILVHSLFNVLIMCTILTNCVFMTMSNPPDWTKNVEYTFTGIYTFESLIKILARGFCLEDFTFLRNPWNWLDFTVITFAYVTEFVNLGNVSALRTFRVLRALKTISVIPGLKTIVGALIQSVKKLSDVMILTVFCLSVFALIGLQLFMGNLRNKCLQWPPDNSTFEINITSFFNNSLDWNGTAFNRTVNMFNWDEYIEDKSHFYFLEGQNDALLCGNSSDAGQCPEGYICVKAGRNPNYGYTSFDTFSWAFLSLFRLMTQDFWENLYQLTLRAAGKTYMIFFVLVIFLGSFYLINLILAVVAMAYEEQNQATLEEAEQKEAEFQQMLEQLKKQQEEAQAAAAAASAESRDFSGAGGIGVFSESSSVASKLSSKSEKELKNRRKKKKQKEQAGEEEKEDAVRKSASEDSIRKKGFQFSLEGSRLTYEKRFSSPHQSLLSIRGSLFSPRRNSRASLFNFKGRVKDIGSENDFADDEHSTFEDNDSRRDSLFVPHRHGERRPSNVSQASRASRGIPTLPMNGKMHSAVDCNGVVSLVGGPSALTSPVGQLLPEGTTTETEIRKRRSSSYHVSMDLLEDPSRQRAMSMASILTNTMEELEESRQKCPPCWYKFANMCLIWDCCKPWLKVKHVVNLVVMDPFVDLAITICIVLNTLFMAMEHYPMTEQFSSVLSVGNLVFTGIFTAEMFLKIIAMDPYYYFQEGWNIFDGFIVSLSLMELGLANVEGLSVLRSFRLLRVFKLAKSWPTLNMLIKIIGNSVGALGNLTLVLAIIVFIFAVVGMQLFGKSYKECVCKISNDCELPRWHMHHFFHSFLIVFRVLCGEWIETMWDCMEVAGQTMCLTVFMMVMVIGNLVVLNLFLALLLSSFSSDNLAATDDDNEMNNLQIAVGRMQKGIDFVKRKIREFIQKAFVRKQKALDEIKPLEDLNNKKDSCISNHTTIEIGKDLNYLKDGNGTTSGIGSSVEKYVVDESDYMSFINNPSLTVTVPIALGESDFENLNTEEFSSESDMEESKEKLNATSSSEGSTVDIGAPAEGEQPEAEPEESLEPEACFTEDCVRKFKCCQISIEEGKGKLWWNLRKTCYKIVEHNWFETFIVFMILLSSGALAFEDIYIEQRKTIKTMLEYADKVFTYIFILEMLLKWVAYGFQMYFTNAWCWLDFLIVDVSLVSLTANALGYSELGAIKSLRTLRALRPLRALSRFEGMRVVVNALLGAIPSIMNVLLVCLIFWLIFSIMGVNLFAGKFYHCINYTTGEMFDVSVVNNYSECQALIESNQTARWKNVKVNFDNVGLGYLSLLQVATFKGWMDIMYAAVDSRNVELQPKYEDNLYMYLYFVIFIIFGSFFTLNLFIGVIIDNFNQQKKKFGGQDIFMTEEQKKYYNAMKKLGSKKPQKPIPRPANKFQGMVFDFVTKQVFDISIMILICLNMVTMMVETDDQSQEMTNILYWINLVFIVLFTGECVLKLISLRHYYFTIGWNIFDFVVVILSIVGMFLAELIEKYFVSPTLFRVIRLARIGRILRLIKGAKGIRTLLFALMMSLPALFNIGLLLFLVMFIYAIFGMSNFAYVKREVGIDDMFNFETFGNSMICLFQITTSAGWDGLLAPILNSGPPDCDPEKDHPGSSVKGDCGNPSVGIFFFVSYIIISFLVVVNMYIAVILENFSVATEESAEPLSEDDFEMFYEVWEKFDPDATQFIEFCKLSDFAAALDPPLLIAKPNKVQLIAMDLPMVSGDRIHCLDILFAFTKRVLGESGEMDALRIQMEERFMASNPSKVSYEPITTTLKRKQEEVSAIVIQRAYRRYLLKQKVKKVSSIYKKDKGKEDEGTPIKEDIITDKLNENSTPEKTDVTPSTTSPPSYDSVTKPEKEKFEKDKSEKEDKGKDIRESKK

Row | Structure (SMILES) | class of pH-dependence pattern (cluster analysis) | Ratio Reversibility (pH 6.0/7.3, cc 300 mM) | Ratio Tau Offset (pH 6.0/7.3, cc 300 mM) | Ratio Tau Onset (pH 6.0/7.3, cc 300 mM) | log Ratio App Aff (pH 6.0/7.3, cc 300 mM) | Ratio Reversibility (pH 6.0/8.6, cc 300 mM) | Ratio Tau Offset (pH 6.0/8.6, cc 300 mM) | Ratio Tau Onset (pH 6.0/8.6, cc 300 mM) | log Ratio App Aff (pH 6.0/8.6, cc 300 mM) | τoffset (pH 6.0) | τonset (pH 6.0) | Kd [1] | Ratio Reversibility (pH 7.3/8.6, cc 300 mM) | Ratio Tau Offset (pH 7.3/8.6, cc 300 mM) | τoffset (pH 7.3) | τonset (pH 7.3) | Kd [2] | τoffset (pH 8.6) | τonset (pH 8.6) | Kd [3] | other results
1 | NC(=O)N1c2ccccc2C=Cc2ccccc21 [carbamazepine] | Class A | 0.728 | 1.229 | 0.800 | -0.028 | 0.955 | 1.490 | 0.800 | 0.00109 | 12.30 s | 4.00 s | 545 µM | 1.312 | 1.212 | 10.01 s | 5.00 s | 581 µM | 8.25 s | 5.00 s | 543 µM | Ratio Tau Onset (pH 7.3/8.6, cc 300 mM): 1.000; log Ratio App Aff (pH 7.3/8.6, cc 300 mM): 0.029; Reversibility (pH=6.0, cc 300 mM): 0.67; Kd [4]: 545 µM; Reversibility (pH=7.3, cc 300 mM): 0.92; Kd [5]: 581 µM; Reversibility (pH=8.6, cc 300 mM): 0.70; Kd [6]: 543 µM
2 | CN(C)CCCN1c2ccccc2Sc2ccc(Cl)cc21 [chlorpromazine] | Class G | – | – | – | – | – | – | – | – | 23.60 s | 19.40 s | 37.5 µM | – | – | 28.40 s | 22.20 s | 31.4 µM | 33.00 s | 29.40 s | 17.2 µM | alkalization-induced recovery (neutral-to-alkalic solution exchange, in words): prominent alkalization-induced recovery; reversibility at all three pH values (pH 6.0, 7.3 and 8.6): below 0.6; Ratio Reversibility (pH 6.0/7.3, cc 30 mM): 1.906; Ratio Tau Offset (pH 6.0/7.3, cc 30 mM): 0.831; Ratio Tau Onset (pH 6.0/7.3, cc 30 mM): 0.874; log Ratio App Aff (pH 6.0/7.3, cc 30 mM): 0.077; Ratio Reversibility (pH 6.0/8.6, cc 30 mM): 1.432; Ratio Tau Offset (pH 6.0/8.6, cc 30 mM): 0.715; Ratio Tau Onset (pH 6.0/8.6, cc 30 mM): 0.660; log Ratio App Aff (pH 6.0/8.6, cc 30 mM): 0.339; Ratio Reversibility (pH 7.3/8.6, cc 30 mM): 0.751; Ratio Tau Offset (pH 7.3/8.6, cc 30 mM): 0.861; Ratio Tau Onset (pH 7.3/8.6, cc 30 mM): 0.755; log Ratio App Aff (pH 7.3/8.6, cc 30 mM): 0.261; Reversibility (pH=6.0, cc 30 mM): 0.53; Kd (pH=6.0, cc 30 mM, read-out: Apparent Affinity): 37.5 µM; Reversibility (pH=7.3, cc 30 mM): 0.28; Kd (pH=7.3, cc 30 mM, read-out: Apparent Affinity): 31.4 µM; Reversibility (pH=8.6, cc 30 mM): 0.37; Kd (pH=8.6, cc 30 mM, read-out: Apparent Affinity): 17.2 µM
3 | CNCCCN1c2ccccc2CCc2ccccc21 [desipramine] | Class C | – | – | – | – | – | – | – | – | 56.80 s | 65.77 s | – | – | – | 57.40 s | 44.40 s | – | 59.00 s | 26.92 s | – | effect of alkalic pH on onset/offset kinetics (in words): acceleration of onset; Reversibility (pH=6.0, cc 30 mM): 0.64; Reversibility (pH=7.3, cc 30 mM): 0.42; Reversibility (pH=8.6, cc 30 mM): 0.11
4 | O=C(NCC1CCCCN1)c1cc(OCC(F)(F)F)ccc1OCC(F)(F)F (stereo not drawn) [flecainide] | Class B | 1.142 | 1.344 | 2.358 | 0.419 | 2.794 | 3.109 | 7.632 | 0.583 | 91.40 s | 58.00 s | 68.1 µM | 2.446 | 2.313 | 68.00 s | 24.60 s | 25.9 µM | 29.40 s | 7.60 s | 17.8 µM | effect of alkalic pH on onset/offset kinetics (in words): significant acceleration of both onset and offset; Ratio Tau Onset (pH 7.3/8.6, cc 300 mM): 3.237; log Ratio App Aff (pH 7.3/8.6, cc 300 mM): 0.164; Reversibility (pH=6.0, cc 300 mM): 0.64; Kd [4]: 68.1 µM; Reversibility (pH=7.3, cc 300 mM): 0.56; Kd [5]: 25.9 µM; Reversibility (pH=8.6, cc 300 mM): 0.23; Kd [6]: 17.8 µM
5 | Nc1nnc(-c2cccc(Cl)c2Cl)c(N)n1 [lamotrigine] | Class A | 0.765 | 1.075 | 0.877 | -0.277 | 0.930 | 0.809 | 0.713 | -0.398 | 14.40 s | 11.40 s | 329 µM | 1.215 | 0.753 | 13.40 s | 13.00 s | 622 µM | 17.80 s | 16.00 s | 821 µM | Ratio Tau Onset (pH 7.3/8.6, cc 300 mM): 0.813; log Ratio App Aff (pH 7.3/8.6, cc 300 mM): -0.121; Reversibility (pH=6.0, cc 300 mM): 0.74; Kd [4]: 329 µM; Reversibility (pH=7.3, cc 300 mM): 0.96; Kd [5]: 622 µM; Reversibility (pH=8.6, cc 300 mM): 0.79; Kd [6]: 821 µM
